Consider five molecules from patent publication US6569893B2, “Amino acid derivatives of triptolide compounds as immune modulators and anticancer agents” (Pharmagenesis, Inc., priority 2001, dated 2003).

A word on the IC50: it is the concentration needed to halve the response being measured. A higher IC50 goes with lower potency.

Assay [1] concerns Jurkat human T lymphocyte cell line. The experiment in a line: Terminal deoxynucleotidyl transferase (TdT, TUNEL) apoptosis assay after incubation of compound with human serum. It is filed as cell-based. Particulars: for EC50: Jurkat cells, 24 h, compound pre-incubated 48 hr at 37° C. in pooled human serum, concentration inducing 50% apoptosis, read-out: ED50 (nM) after 48 hr incubation with human serum; for Conversion (relative activity compared to PG490) (%): percent of ED50 relative to triptolide incubated in parallel in human serum (taken as 100%). The method, then: (§1) Several compounds of formula I were prepared, as described in the Examples. In preliminary assays, the compounds were evaluated for their capacity to induce apoptosis in cells from the Jurkat human T lymphocyte cell line, after incubation with pooled human serum for 48 hrs at 37° C. (see Example 7). One of the compounds was also analyzed for its capacity to inhibit IL-2 production in Jurkat human T lymphocyte cells (see Example 8). Controls consisted of the compounds incubated in complete tissue culture medium (RPMI 1640 medium plus 5% heat-inactivated fetal calf serum, 1% HEPES, 1% pen/strep, 1% glutamine) rather than human serum.
(§2) The ED50/IC50 values (column 3) are calculated directly from the data in each experiment, and the % conversion values (column 4) are calculated as percent of the ED50 or IC50 value produced by triptolide, incubated in the same plasma (i.e. in the same experiment).
Pooled human serum was stored in aliquots at −80° C. Test compounds were added at 20 mM to thawed human serum in 1.5 ml microfuge tubes and incubated at 37° C. in a water bath for 48 hours. The test samples were placed on ice until dilution for the bioassay. Controls consisted of the compounds incubated in complete tissue culture medium (RPMI 1640 medium plus 5% heat-inactivated fetal calf serum, 1% HEPES, 1% pen/strep, 1% glutamine) rather than human serum.
Test samples were diluted to 1 mM in complete tissue culture medium. Aliquots were placed in microculture plates and serial dilutions were prepared so that the final concentration would encompass the range of 2 to 6,000 nM with half-log increments. Cells from an exponentially expanding culture of the Jurkat human T lymphocyte cell line (#TIB-152 obtained from American Type Culture Collection, Manassas, Va.) were harvested, washed once by centrifugation and dilution in complete tissue culture medium, and diluted to a concentration of 1×10^6 cells/ml. A volume of 100 μl of Jurkat cells (1×10^5 cells) was added to wells containing 100 μl of the diluted compounds, and the plates were incubated at 37° C. in a 5% CO2 incubator. After 24 hours, the plates were centrifuged to pellet the cells, and the cells were washed with PBS. The cells were fixed in paraformaldehyde, washed, treated with ethanol, washed and then incubated with the enzyme terminal deoxynucleotidyl transferase (TdT) and fluorescein labeled-deoxyuridine (dUTP). The process allows 3′ end labeling of DNA molecules which were nicked during the DNA fragmentation phase of apoptosis (terminal deoxynucleotidyl transferase dUTP nick end labeling; TUNEL labeling). The cells were washed, treated with ribonuclease, washed and resuspended in medium containing propidium iodide to distinguish intact apoptotic cells. The contents of the assay wells were individually transferred into test tubes, and apoptosis was analyzed using a FACSCalibur flow cytometer (BD Immunocytometry Systems, San Jose, Calif.). Cells positive for Fl-dUTP were considered to be apoptotic, and the data were calculated as percent apoptotic cells.
For the assays in sections B and C, data were plotted as the concentration of compound incubated in serum versus percent apoptotic cells, and the concentration of compound inducing 50% apoptosis (ED50) was calculated from these dose response curves. The percent conversion of the test compounds to bioactive compound (assumed to be triptolide) was calculated in reference to the result with triptolide incubated in parallel in human serum in the same experiment, as the percent of the ED50 of the compound compared to that for triptolide, which was taken as 100%.

Assay [2] has as its system HT-29 human colon cancer cell line tumor xenografts. To be noted: HT-29 xenografts, cited from earlier work.
For assay [3], the system named is IL-2 production in Jurkat human T lymphocyte cells. The experiment in a line: IL-2 production (inhibition) assay after incubation of compound with human serum. The format is cell-based. The method, then:
as §1, §2
(§3) Pooled human serum was stored in aliquots at −80° C. […]
Test samples, incubated in human serum as described in Example 7A, were diluted to 1 mM in complete tissue culture medium. […] The stored supernatants were analyzed for human IL-2 concentration using the Luminex 100 (Luminex Corporation, Austin, Tex.), Luminex microspheres coupled with anti-IL-2 capture antibody, and fluorochrome-coupled anti-IL-2 detection antibody. The data were expressed as ng/ml of IL-2. […]

For assay [4], the system named is Jurkat human T lymphocyte cell line. The experiment in a line: Annexin V apoptosis assay after incubation of compound with human serum. The format is cell-based. The method, then:
as §1, §2, §3
Test samples (incubated in human serum as described in section A) were prepared and diluted as described in section B, and Jurkat human T lymphocyte cells were prepared and added to wells containing 100 μl of the diluted compounds, also as described in section B. The plates were incubated at 37° C. in a 5% CO2 incubator. […] Cells positive for Annexin V binding were considered to be apoptotic, and the data were calculated as percent apoptotic cells. […]

For the molecule `CC(C)[C@]12O[C@H]1[C@@H]1O[C@]13[C@]1(O[C@H]1C[C@H]1C4=C(CC[C@@]13C)C(=O)OC4)[C@@H]2OC(=O)C(CCC(=O)OCc1ccccc1)NC(=O)OCc1ccccc1` (mixture of isomers) [PG657, Triptolide 14-γ-Benzyl-N-benzyloxycarbonyl-(L)-glutamate Ester, mixture with D-isomer], in assay [1], the EC50 was 300 nM and the “Conversion (relative activity compared to PG490) (%)” value was found to be 10%.

With `CC(C)C12OC1C1OC13C1(C)CCC4=C(COC4=O)C1CC1OC13C2OC(=O)CCC(=O)O` (stereo not drawn) [14-succinate derivative of triptolide], in assay [2], the Tumor regression entry is recorded as “induced tumor regression”. Also, the Tumor growth inhibition entry in assay [2] (in comparison to 5-FU and CPT-11) was “strongly inhibited tumor growth, to a significantly greater degree than 5-FU and CPT-11”.

For `CC(C)[C@]12O[C@H]1[C@@H]1O[C@]13[C@]1(O[C@H]1C[C@H]1C4=C(CC[C@@]13C)C(=O)OC4)[C@@H]2OC(=O)CC[C@H](NC(=O)OC(C)(C)C)C(=O)OC(C)(C)C` [PG658, Triptolide 14-N-t-Butoxycarbonyl-α-t-butyl-L-glutamate Ester], the EC50 in assay [1] (Homo sapiens, Jurkat) was determined as 750 nM. In assay [1], the “Conversion (relative activity compared to PG490) (%)” value came out at 4.0%.

Take `CC(C)[C@]12O[C@H]1[C@@H]1O[C@]13[C@]1(O[C@H]1C[C@H]1C4=C(CC[C@@]13C)C(=O)OC4)[C@@H]2OC(=O)CC[C@@H](NC(=O)OCc1ccccc1)C(=O)OCc1ccccc1` [PG660, Triptolide 14-α-Benzyl-N-benzyloxycarbonyl-D-glutamate Ester]: in assay [1] (Homo sapiens, Jurkat), the EC50 was determined as 1100 nM. Besides, the “Conversion (relative activity compared to PG490) (%)” value in assay [1] amounted to 2.7%.

For the molecule `CC(C)[C@]12O[C@H]1[C@@H]1O[C@]13[C@]1(O[C@H]1C[C@H]1C4=C(CC[C@@]13C)C(=O)OC4)[C@@H]2OC(=O)CC[C@H](N)C(=O)O` [PG661, 14-γ-L-glutamate Ester of Triptolide], the “Conversion (relative activity compared to PG490) (%)” value in assay [3] (IL-2 inhibition assay, percent of IC50 relative to triptolide incubated in parallel (taken as 100%)) stood at 1.4%; in assay [4] (percent of ED50 relative to triptolide incubated in parallel in human serum (taken as 100%)), 0.16%. Also, in assay [3] (IL-2 inhibition, anti-CD3/PMA-stimulated Jurkat cells, 24 h, compound pre-incubated 48 hr in human serum, 50% decrease in IL-2 concentration), the midpoint of inhibition, the IC50, lay at 330 nM. The EC50 in assay [4] (Jurkat cells, 24 h, compound pre-incubated 48 hr at 37° C. in pooled human serum, read-out: ED50 (nM) after 48 hr incubation with human serum) was determined as 34700 nM.
